Measured values: patent publication EP2958945B1, “COMBINATION THERAPY INVOLVING ANTIBODIES AGAINST CLAUDIN 18.2 FOR TREATMENT OF CANCER” (Astellas Pharma Inc., priority 2013, dated 2014)

Key:
Type in all cases: cell-based, human
BxPC3-LVT = assay: Inhibition of proliferation (XTT), BxPC3-LVT; conditions: exposed for 4 days
Method: (§1) To analyze dose-response curves of each chemotherapeutic agent, a proliferation assay was performed. Table 6: Pancreas cancer cell lines to analyze efficacy of gemcitabine or oxaliplatin
(§2) Cells were seeded in 96well plates and after 4-6 hours gemcitabine or oxaliplatin was added in following concentrations: 1000, 500, 250, 100 and 20 ng/ml. The proliferation assay was incubated for 4 days at 37°C and 5% CO2. 50 µl XTT complete reagent (50 parts XTT + 1 part coupl. reagent mixed) was added and incubated at 37°C. Measurement of absorbance (cells plus supernatant) was done with the Tecan Safire after 3 h and 4 h. Inhibition of proliferation was calculated compared to medium values set as 100%. EC50 values for gemcitabine and oxaliplatin were calculated in the GraphPad Prism program.

Capanl-LVT = assay: Inhibition of proliferation (XTT), Capanl-LVT; conditions: exposed for 4 days
Method: as §1, §2

DANG = assay: Inhibition of proliferation (XTT), DANG; conditions: exposed for 4 days
Method: as §1, §2

MiaPaCa-2-LVT = assay: Inhibition of proliferation (XTT), MiaPaCa-2-LVT; conditions: exposed for 4 days
Method: as §1, §2

Kato III cells = assay: Cell cycle analysis and cell growth, Kato III; conditions: Kato III; 5-FU 10 or 100 ng/ml, oxaliplatin 50 or 500 ng/ml; 96 hours
Method: Kato III cells, a human gastric tumor cell line, was cultivated in RPMI 1640 medium (Invitrogen) containing 20% FCS (Perbio) and 2 mM Glutamax (Invitrogen) at 37°C and 5% CO2, with or without cytostatic compounds. 5-FU (Neofluor from NeoCorp AG) was tested at a concentration of 10 or 100 ng/ml, and oxaliplatin (Hospira) was tested at a concentration of 50 or 500 ng/ml. […] Cells were harvested with EDTA/trypsin, washed and analysed.
Cell cycle stages were determined based on measurement of cellular DNA content. This allows one to discriminate between cells in the G1-, S- or G2-phase of the cell cycle. In the S-phase DNA duplication occurs whereas in the G2-phase cells grow and prepare for mitosis. Cell cycle analysis was done using the CycleTEST PLUS DNA Reagent Kit from BD Biosciences following the manufacturer's protocol. Flow cytometry acquisition and analysis were performed by using BD FACS CantoII (BD Biosciences) and FlowJo (Tree Star) software.
Kato III cells were pretreated for 4 days with Irinotecan or Docetaxel and analysed for CLDN18.2 expression and cell cycle arrest.

## O=C1[O][Pt]2([NH][C@@H]3CCCC[C@H]3[NH]2)[O]C1=O [oxaliplatin, [(1R,2R)-cyclohexane-1,2-diamine](ethanedioato-O,O')platinum(II)]
BxPC3-LVT
  IC50 Inhibition of Proliferation: 0.5 to 1 mg/L
Capanl-LVT
  IC50 Inhibition of Proliferation: ~0.1 mg/L
DANG
  IC50 Inhibition of Proliferation: ~0.5 mg/L
MiaPaCa-2-LVT
  IC50 Inhibition of Proliferation: 0.05 to 0.1 mg/L
Kato III cells
  cell cycle phase distribution: enrichment of cells predominantly in the G1- and G2-phases
